Results taken from patent EP4635500A1, “THERAPEUTIC AGENT FOR BACTERIAL INFECTION” (Sumitomo Pharma Co., Ltd., priority 2022, dated 2024).
Values after ≈ are worked out from the molar mass of the structure shown. Read-outs that look alike come from different tables or passages of the source.

Test system: carbapenemase-producing Enterobacteriaceae (CPE)
Assay: MIC in human urine and CAMHB at pH 5.0 to 8.0 (Example 13, Tables 29, 30)

Structure (SMILES): C[C@@H](O)[C@H]1C(=O)N2C(C(=O)O)=C(S[C@@H]3CN[C@H](C(=O)N(C)C)C3)[C@H](C)[C@H]12 [MEPM, meropenem]
- MIC (Escherichia coli, ATCC25922, pH 5, read-out: MICs of MEPM, E. coli ATCC 25922 (QC strain), CAMHB pH5.0): 0.12 µg/mL (≈ 0.313 µM)
- MIC (Escherichia coli, ATCC25922, pH 5, read-out: MICs of MEPM, E. coli ATCC 25922 (QC strain), Human urine pH5.0): 0.12 µg/mL (≈ 0.313 µM)
- MIC (Escherichia coli, ATCC25922, pH 6, read-out: MICs of MEPM, E. coli ATCC 25922 (QC strain), CAMHB pH6.0): 0.06 µg/mL (≈ 0.156 µM)
- MIC (Escherichia coli, ATCC25922, pH 6, read-out: MICs of MEPM, E. coli ATCC 25922 (QC strain), Human urine pH6.0): 0.03 µg/mL (≈ 0.0782 µM)
- MIC (Escherichia coli, ATCC25922, pH 7, read-out: MICs of MEPM, E. coli ATCC 25922 (QC strain), Human urine pH7.0): 0.015 µg/mL (≈ 0.0391 µM)
- MIC (Escherichia coli, ATCC25922, pH 7.2, read-out: MICs of MEPM, E. coli ATCC 25922 (QC strain), Standard condition (CAMHB pH7.2)): 0.03 µg/mL (≈ 0.0782 µM)
- MIC (Escherichia coli, ATCC25922, pH 8, read-out: MICs of MEPM, E. coli ATCC 25922 (QC strain), CAMHB pH8.0): 0.015 µg/mL (≈ 0.0391 µM)
- MIC (Escherichia coli, ATCC25922, pH 8, read-out: MICs of MEPM, E. coli ATCC 25922 (QC strain), Human urine pH8.0): 0.015 µg/mL (≈ 0.0391 µM)
- MIC (Escherichia coli, ATCCBAA2340, pH 5, read-out: MICs of MEPM, E. coli ATCC BAA-2340 (KPC-3), CAMHB pH5.0): 2 µg/mL (≈ 5.22 µM)
- MIC (Escherichia coli, ATCCBAA2340, pH 5, read-out: MICs of MEPM, E. coli ATCC BAA-2340 (KPC-3), Human urine pH5.0): 1 µg/mL (≈ 2.61 µM)
- MIC (Escherichia coli, ATCCBAA2340, pH 6, read-out: MICs of MEPM, E. coli ATCC BAA-2340 (KPC-3), CAMHB pH6.0): 8 µg/mL (≈ 20.9 µM)
- MIC (Escherichia coli, ATCCBAA2340, pH 6, read-out: MICs of MEPM, E. coli ATCC BAA-2340 (KPC-3), Human urine pH6.0): 1 µg/mL (≈ 2.61 µM)
- MIC (Escherichia coli, ATCCBAA2340, pH 7, read-out: MICs of MEPM, E. coli ATCC BAA-2340 (KPC-3), Human urine pH7.0): 2 µg/mL (≈ 5.22 µM)
- MIC (Escherichia coli, ATCCBAA2340, pH 7.2, read-out: MICs of MEPM, E. coli ATCC BAA-2340 (KPC-3), Standard condition (CAMHB pH7.2)): 8 µg/mL (≈ 20.9 µM)
- MIC (Escherichia coli, ATCCBAA2340, pH 8, read-out: MICs of MEPM, E. coli ATCC BAA-2340 (KPC-3), CAMHB pH8.0): 4 µg/mL (≈ 10.4 µM)
- MIC (Escherichia coli, ATCCBAA2340, pH 8, read-out: MICs of MEPM, E. coli ATCC BAA-2340 (KPC-3), Human urine pH8.0): 8 µg/mL (≈ 20.9 µM)
- MIC (Escherichia coli, ATCCBAA2469, pH 5, read-out: MICs of MEPM, E. coli ATCC BAA-2469 (NDM-1), CAMHB pH5.0): 0.12 µg/mL (≈ 0.313 µM)
- MIC (Escherichia coli, ATCCBAA2469, pH 5, read-out: MICs of MEPM, E. coli ATCC BAA-2469 (NDM-1), Human urine pH5.0): 0.12 µg/mL (≈ 0.313 µM)
- MIC (Escherichia coli, ATCCBAA2469, pH 6, read-out: MICs of MEPM, E. coli ATCC BAA-2469 (NDM-1), CAMHB pH6.0): 8 µg/mL (≈ 20.9 µM)
- MIC (Escherichia coli, ATCCBAA2469, pH 6, read-out: MICs of MEPM, E. coli ATCC BAA-2469 (NDM-1), Human urine pH6.0): 0.12 µg/mL (≈ 0.313 µM)
- MIC (Escherichia coli, ATCCBAA2469, pH 7, read-out: MICs of MEPM, E. coli ATCC BAA-2469 (NDM-1), Human urine pH7.0): 16 µg/mL (≈ 41.7 µM)
- MIC (Escherichia coli, ATCCBAA2469, pH 7.2, read-out: MICs of MEPM, E. coli ATCC BAA-2469 (NDM-1), Standard condition (CAMHB pH7.2)): 32 µg/mL (≈ 83.4 µM)
- MIC (Escherichia coli, ATCCBAA2469, pH 8, read-out: MICs of MEPM, E. coli ATCC BAA-2469 (NDM-1), CAMHB pH8.0): 64 µg/mL (≈ 167 µM)
- MIC (Escherichia coli, ATCCBAA2469, pH 8, read-out: MICs of MEPM, E. coli ATCC BAA-2469 (NDM-1), Human urine pH8.0): 8 µg/mL (≈ 20.9 µM)
- MIC (Escherichia coli, NCTC13476, pH 5, read-out: MICs of MEPM, E. coli NCTC 13476 (IMP-1), CAMHB pH5.0): 0.25 µg/mL (≈ 0.652 µM)
- MIC (Escherichia coli, NCTC13476, pH 5, read-out: MICs of MEPM, E. coli NCTC 13476 (IMP-1), Human urine pH5.0): 0.25 µg/mL (≈ 0.652 µM)
- MIC (Escherichia coli, NCTC13476, pH 6, read-out: MICs of MEPM, E. coli NCTC 13476 (IMP-1), CAMHB pH6.0): 1 µg/mL (≈ 2.61 µM)
- MIC (Escherichia coli, NCTC13476, pH 6, read-out: MICs of MEPM, E. coli NCTC 13476 (IMP-1), Human urine pH6.0): 0.12 µg/mL (≈ 0.313 µM)
- MIC (Escherichia coli, NCTC13476, pH 7, read-out: MICs of MEPM, E. coli NCTC 13476 (IMP-1), Human urine pH7.0): 1 µg/mL (≈ 2.61 µM)
- MIC (Escherichia coli, NCTC13476, pH 7.2, read-out: MICs of MEPM, E. coli NCTC 13476 (IMP-1), Standard condition (CAMHB pH7.2)): 4 µg/mL (≈ 10.4 µM)
- MIC (Escherichia coli, NCTC13476, pH 8, read-out: MICs of MEPM, E. coli NCTC 13476 (IMP-1), CAMHB pH8.0): 16 µg/mL (≈ 41.7 µM)
- MIC (Escherichia coli, NCTC13476, pH 8, read-out: MICs of MEPM, E. coli NCTC 13476 (IMP-1), Human urine pH8.0): 8 µg/mL (≈ 20.9 µM)
- MIC (Klebsiella pneumoniae, ATCCBAA2342, pH 5, read-out: MICs of MEPM, K. pneumoniae ATCC BAA-2342 (KPC-3), CAMHB pH5.0): 16 µg/mL (≈ 41.7 µM)
- MIC (Klebsiella pneumoniae, ATCCBAA2342, pH 5, read-out: MICs of MEPM, K. pneumoniae ATCC BAA-2342 (KPC-3), Human urine pH5.0): 4 µg/mL (≈ 10.4 µM)
- MIC (Klebsiella pneumoniae, ATCCBAA2342, pH 6, read-out: MICs of MEPM, K. pneumoniae ATCC BAA-2342 (KPC-3), CAMHB pH6.0): 16 µg/mL (≈ 41.7 µM)
- MIC (Klebsiella pneumoniae, ATCCBAA2342, pH 6, read-out: MICs of MEPM, K. pneumoniae ATCC BAA-2342 (KPC-3), Human urine pH6.0): 8 µg/mL (≈ 20.9 µM)
- MIC (Klebsiella pneumoniae, ATCCBAA2342, pH 7, read-out: MICs of MEPM, K. pneumoniae ATCC BAA-2342 (KPC-3), Human urine pH7.0): 16 µg/mL (≈ 41.7 µM)
- MIC (Klebsiella pneumoniae, ATCCBAA2342, pH 7.2, read-out: MICs of MEPM, K. pneumoniae ATCC BAA-2342 (KPC-3), Standard condition (CAMHB pH7.2)): 16 µg/mL (≈ 41.7 µM)
- MIC (Klebsiella pneumoniae, ATCCBAA2342, pH 8, read-out: MICs of MEPM, K. pneumoniae ATCC BAA-2342 (KPC-3), CAMHB pH8.0): 16 µg/mL (≈ 41.7 µM)
- MIC (Klebsiella pneumoniae, ATCCBAA2342, pH 8, read-out: MICs of MEPM, K. pneumoniae ATCC BAA-2342 (KPC-3), Human urine pH8.0): 32 µg/mL (≈ 83.4 µM)
